{"source": "patent US20100285963A1", "about": "“SUBSTITUTED FLUOROALKOXYPHENYLSULFONYLUREAS” (priority 2001, published 2010)", "format_in_all_cases": "in vivo", "key": {"weeds [1]": {"system": "weeds", "assay": "Pre-emergence test (greenhouse), damage to weeds", "conditions": "for activity against weeds: soil sprayed 24 hours after sowing, rated after three weeks as % damage vs untreated control", "experimental": "(§1) Solvent: 5 parts by weight of acetone\n(§2) Emulsifier: 1 part by weight of alkylaryl polyglycol ether\nTo produce a suitable preparation of active compound, 1 part by weight of active compound is mixed with the stated amount of solvent, the stated amount of emulsifier is added and the concentrate is diluted with water to the desired concentration.\nSeeds of the test plants are sown in normal soil. After 24 hours, the soil is sprayed with the preparation of active compounds such that the particular amount of active compound desired is applied per unit area. The concentration of active compound in the spray liquor is chosen such that the particular amount of active compound desired is applied in 1000 liters of water per hectare.\nAfter three weeks, the degree of damage to the plants is rated in % damage in comparison to the development of the untreated control. The figures denote: • 0%=no effect (like untreated control) • 100%=total destruction"}, "weeds [2]": {"system": "weeds", "assay": "Post-emergence test (greenhouse), damage to weeds", "conditions": "for activity against weeds: test plants of 5-15 cm sprayed, rated after three weeks as % damage vs untreated control", "experimental": "as §1, §2\n(§3) To product a suitable preparation of active compound, 1 part by weight of active compound is mixed with the stated amount of solvent, the stated amount of emulsifier is added and the concentrate is diluted with water to the desired concentration.\n(§4) Test plants of a height of 5-15 cm are sprayed with the preparation of active compound such that the particular amounts of active compound desired are applied per unit area. The concentration of the spray liquor is chosen such that the particular amounts of active compound desired are applied in 10001 of water/ha.\n(§5) After three weeks, the degree of damage to the plants is rated in % damage in comparison to the development of the untreated control.\n(§6) The figures denote: • 0%=no effect (like untreated control) • 100%=total destruction"}, "[3]": {"system": "apple mildew pathogen Podosphaera leucotricha", "assay": "Podosphaera test (apple)/protective", "conditions": "protective, apple, application rate 100 g/ha, 10 days after inoculation", "experimental": "Solvent: 49 parts by weight of acetone\nas §2\nTo produce a suitable preparation of active compound, 1 part by weight of active compound is mixed with the stated amounts of solvent and emulsifier, and the concentrate is diluted with water to the desired concentration.\nTo test for protective activity, young plants are sprayed with the preparation of active compound at the stated application rate. After the spray coating has dried on, the plants are inoculated with an aqueous spore suspension of the apple mildew pathogen Podosphaera leucotricha. The plants are then placed in a greenhouse at about 23° C. and a relative atmospheric humidity of about 70%.\nEvaluation is carried out 10 days after the inoculation. 0% means an efficacy which corresponds to that of the control, whereas an efficacy of 100% means that no infection is observed."}, "[4]": {"system": "crop plants, such as, for example, corn, wheat and sugar beet", "assay": "Post-emergence test (greenhouse), tolerance by crop plants", "conditions": "8 g of a.i./ha, after three weeks, Table B3", "experimental": "as §1, §2, §3, §4, §5, §6"}, "[5]": {"conditions": "60 g of a.i./ha, after three weeks, Table A7"}, "[6]": {"conditions": "30 g of a.i./ha, after three weeks, Table B13"}, "[7]": {"conditions": "60 g of a.i./ha, after three weeks, Table A6"}, "[8]": {"conditions": "8 g of a.i./ha, after three weeks, Table B3"}, "[9]": {"conditions": "15 g of a.i./ha, after three weeks, Table A3"}, "[10]": {"conditions": "30 g of a.i./ha, after three weeks, Table B10"}}}
{"smiles": "COc1nc(NC(=O)NS(=O)(=O)c2c(OCCF)cccc2C(F)(F)F)nc(OC)n1", "note": "[(21)]", "values": [{"measurement": "% damage Abutilon", "setting": "weeds [1]; [5]", "result": 90, "unit": "%"}, {"measurement": "% damage Alopecurus", "setting": "weeds [1]; [5]", "result": 90, "unit": "%"}, {"measurement": "% damage Amaranthus", "setting": "weeds [1]; [5]", "result": 95, "unit": "%"}, {"measurement": "% damage Galium", "setting": "weeds [1]; [5]", "result": 95, "unit": "%"}, {"measurement": "% damage Setaria", "setting": "weeds [1]; [5]", "result": 100, "unit": "%"}, {"measurement": "% damage Sinapis", "setting": "weeds [1]; [5]", "result": 100, "unit": "%"}, {"measurement": "% damage Avena fatua", "setting": "weeds [2]; [6]", "result": 100, "unit": "%"}, {"measurement": "% damage Datura", "setting": "weeds [2]; [6]", "result": 100, "unit": "%"}, {"measurement": "% damage Lolium", "setting": "weeds [2]; [6]", "result": 100, "unit": "%"}, {"measurement": "% damage Matricaria", "setting": "weeds [2]; [6]", "result": 100, "unit": "%"}, {"measurement": "% damage Solanum", "setting": "weeds [2]; [6]", "result": 100, "unit": "%"}]}
{"smiles": "COc1nc(C)nc(NC(=O)[N-]S(=O)(=O)c2c(OCCF)cccc2C(F)(F)F)n1.[Na+]", "note": "[Example 5]", "values": [{"measurement": "activity against weeds", "setting": "weeds [1]", "result": "very strong activity"}, {"measurement": "activity against weeds", "setting": "weeds [2]", "result": "very strong activity"}]}
{"smiles": "CCCc1cccc(OCCCF)c1S(=O)(=O)NC(=O)Nc1nc(OC)cc(OC)n1", "note": "[drawing 19]", "values": [{"measurement": "% efficacy", "setting": "[3]", "result": 100, "unit": "%"}]}
{"smiles": "CCc1cccc(OCCCF)c1S(=O)(=O)NC(=O)Nc1nc(C)nc(OC)n1", "note": "[(17)]", "values": [{"measurement": "% damage Abutilon", "setting": "weeds [1]; [7]", "result": 95, "unit": "%"}, {"measurement": "% damage Alopecurus", "setting": "weeds [1]; [7]", "result": 95, "unit": "%"}, {"measurement": "% damage Amaranthus", "setting": "weeds [1]; [7]", "result": 95, "unit": "%"}, {"measurement": "% damage Echinochloa", "setting": "weeds [1]; [7]", "result": 95, "unit": "%"}, {"measurement": "% damage Galium", "setting": "weeds [1]; [7]", "result": 95, "unit": "%"}, {"measurement": "% damage Sinapis", "setting": "weeds [1]; [7]", "result": 90, "unit": "%"}, {"measurement": "% damage Abutilon", "setting": "weeds [2]; [8]", "result": 100, "unit": "%"}, {"measurement": "% damage Ipomoea", "setting": "weeds [2]; [8]", "result": 100, "unit": "%"}, {"measurement": "% damage Lolium", "setting": "weeds [2]; [8]", "result": 90, "unit": "%"}, {"measurement": "% damage Matricaria", "setting": "weeds [2]; [8]", "result": 100, "unit": "%"}, {"measurement": "% damage Solanum", "setting": "weeds [2]; [8]", "result": 100, "unit": "%"}, {"measurement": "% damage Stellaria", "setting": "weeds [2]; [8]", "result": 100, "unit": "%"}, {"measurement": "% damage Wheat", "setting": "[4]", "result": 10, "unit": "%"}]}
{"smiles": "COc1nc(C)nc(NC(=O)NS(=O)(=O)c2c(OCCF)cccc2C(F)(F)F)n1", "note": "[Example 3]", "values": [{"measurement": "activity against weeds", "setting": "weeds [1]", "result": "very strong activity"}, {"measurement": "activity against weeds", "setting": "weeds [2]", "result": "very strong activity"}]}
{"smiles": "CCCc1cccc(OCCCF)c1S(=O)(=O)NC(=O)Nc1nc(C)nc(OC)n1", "note": "[Example 7]", "values": [{"measurement": "activity against weeds", "setting": "weeds [1]", "result": "very strong activity"}, {"measurement": "activity against weeds", "setting": "weeds [2]", "result": "very strong activity"}]}
{"smiles": "COc1nc(NC(=O)NS(=O)(=O)c2c(OCCF)cccc2C(F)(F)F)nc(OC)n1", "note": "[Example 21]", "values": [{"measurement": "activity against weeds", "setting": "weeds [1]", "result": "very strong activity"}, {"measurement": "activity against weeds", "setting": "weeds [2]", "result": "very strong activity"}]}
{"smiles": "CCc1cccc(OCCCF)c1S(=O)(=O)NC(=O)Nc1nc(C)cc(C)n1", "note": "[Example 6]", "values": [{"measurement": "activity against weeds", "setting": "weeds [1]", "result": "very strong activity"}, {"measurement": "activity against weeds", "setting": "weeds [2]", "result": "very strong activity"}]}
{"smiles": "COc1cc(OC)nc(NC(=O)NS(=O)(=O)c2c(OCCF)cccc2C(F)(F)F)n1", "note": "[Example 4]", "values": [{"measurement": "activity against weeds", "setting": "weeds [1]", "result": "very strong activity"}, {"measurement": "activity against weeds", "setting": "weeds [2]", "result": "very strong activity"}]}
{"smiles": "COc1nc(C)nc(NC(=O)[N-]S(=O)(=O)c2c(OCCF)cccc2C(F)(F)F)n1.[Na+]", "note": "[(5)]", "values": [{"measurement": "% damage Amaranthus", "setting": "weeds [1]; [9]", "result": 100, "unit": "%"}, {"measurement": "% damage Datura", "setting": "weeds [1]; [9]", "result": 100, "unit": "%"}, {"measurement": "% damage Echinochloa", "setting": "weeds [1]; [9]", "result": 100, "unit": "%"}, {"measurement": "% damage Galium", "setting": "weeds [1]; [9]", "result": 100, "unit": "%"}, {"measurement": "% damage Matricaria", "setting": "weeds [1]; [9]", "result": 100, "unit": "%"}, {"measurement": "% damage Viola", "setting": "weeds [1]; [9]", "result": 100, "unit": "%"}, {"measurement": "% damage Abutilon", "setting": "weeds [2]; [10]", "result": 100, "unit": "%"}, {"measurement": "% damage Alopecurus", "setting": "weeds [2]; [10]", "result": 95, "unit": "%"}, {"measurement": "% damage Amaranthus", "setting": "weeds [2]; [10]", "result": 100, "unit": "%"}, {"measurement": "% damage Ipomoea", "setting": "weeds [2]; [10]", "result": 100, "unit": "%"}, {"measurement": "% damage Lolium", "setting": "weeds [2]; [10]", "result": 95, "unit": "%"}, {"measurement": "% damage Matricaria", "setting": "weeds [2]; [10]", "result": 100, "unit": "%"}, {"measurement": "% damage Stellaria", "setting": "weeds [2]; [10]", "result": 100, "unit": "%"}]}
{"smiles": "COc1cc(OC)nc(NC(=O)NS(=O)(=O)c2c(C)cccc2OCCF)n1", "note": "[drawing 17]", "values": [{"measurement": "% efficacy", "setting": "[3]", "result": 100, "unit": "%"}]}
